Data on 16 compounds can be found in US10208074B2, “Pyrazole compounds and method for making and using the compounds” (Rigel Pharmaceuticals, Inc., priority 2015, dated 2019).

One may read the EC50 as the concentration giving half of the maximal effect.

SMILES strings stand for the structures. Structures can show the parent of a compound that is named as a salt.

For one assay, the system named is IL-23p19. In words: LPS induced IL23p19 in THP-1 cells (with IFNγ primed) assay. It is filed as cell-based, Human. Particulars: Homo sapiens, THP-1, 18 h, THP-1 cells, IFNγ primed, LPS 1 ug/mL, 18 hours, 10 pt; read-out: IL23-p19 ELISA, THP1-IFNy, LPS, 10 pt EC50. The text has this: LPS Induced IL23p19 in THP-1 Cells (with IFNγ Primed) Assay
THP-1 Cells (ATCC, Cat#TIB-202), Dimethyl Sulfoxide (DMSO) (Sigma-Aldrich, Cat#D2650), RPMI 1640 (Cellgro, Cat#10-040-CM), Fetal Bovine Serum (Sigma, Cat#F4135), Albumin From Bovine Serum (BSA) (Sigma-Aldrich, Cat#A7906), LPS (Serotype K-235, Sigma, Product Number L 2143), IFNγ (Peprotech, Cat#300-02) Capture antibody: Human IL-23p19 ELISA (e-Bioscience, Cat. #14-7238-85), Detection antibody: Primary Mouse Biotinylated anti-human IL-12(p40/p70) (e-Bioscience, Cat. #13-7129-85), Secondary HRP-conjugated Streptavidin (R&D Systems, Cat#DY998), 1×PBST Washing Buffer (PBS-Tween tablet) (VWR International, Cat#80058-558), ELISA Blocking Buffer (PBS with 1% BSA), ELISA Dilution Buffer (PBS with 1% BSA), 384 Well Flat-Bottom, MaxiSorp Black Immuno Plates (Thermo Scientific, Cat#12-565-346), 384 Well Flat-Bottom, White Tissue Culture Plates (Thermo Scientific, Cat#12-565-343), Super Signal ELISA Pico Chemiluminescent Substrate (Thermo Scientific, Cat#37070), Cell Titer Glo reagent (Promega, Cat#G7573), Positive control, IKK2VI inhibitor (Calbiochem, Cat#401483), AquaMax 4000 plate washer (Molecular Devices), Luminometer, Wallac Victor2 1420 Multilabel Counter.
On day 1, 50K/well THP-1 cells were seeded and primed with IFNγ (50 ng/mL) in 384-well plates for about 18 hours in RPMI media with 10% FBS. On day 2, the compound was serially diluted in DMSO from 5 mM in 3-fold dilutions, and then diluted 1:125 in RPMI media with 10% FBS. 50 μL/well 2× compound was added to 50 μL/well THP-1 cells (with IFNγ primed) in duplicate in 384 well tissue culture plates. The cells were pre-incubated with compound for 1 hour at 37° C., 5% CO2 before addition of 10 μL/well 11×LPS to give a final concentration of 1 ug/mL LPS. Day 3, after stimulation for 18 hours at 37° C., 5% CO2, the assay plate was centrifuged and 70 μL/well supernatant was harvested. IL-23p19 protein in 70 μL/well of supernatant was measured by sandwich ELISA, and 25 μl/well Cell Titer Glo reagent was added to the remaining cells to measure compound toxicity.
Maxisorp immuno ELISA plates were pre-coated with 25 μL/well of anti-IL-23p19 capture antibody (2.5 ug/mL) in PBS overnight at room temperature. After washing with 1× PBST, the plates were blocked using 100 μL/well of 1% BSA in PBS for 2 hours at room temperature. The plates were washed three times with 1×PBST and 70 μL/well supernatant were added. The plates were incubated at room temperature for 2 hours with shaking and washed three times with 1×PBST. 25 μL/well of biotin labeled anti-IL-12(p40/p70) detection antibody (100 ng/mL) in PBS with 1% BSA was added and the plates were incubated at room temperature for 2 hours with shaking. After washing three times with 1×PBST, 25 μL/well of streptavidin-HRP (1:200) in PBS with 1% BSA was added and the plates were incubated at room temperature for 20 minutes with shaking. The plates were washed three times with 1× PBST and 25 μL/well of Super Signal ELISA Pico Chemiluminescent Substrate were added. The plates were read with a luminometer, and the chemiluminescence values were entered into Athena (Rigel) for curve fitting, EC50 calculation, and database storage.
(In an ELISA, binding on a coated surface is turned into a signal by an enzyme label.)
In the case of `CCCOCn1cc(NC(=O)c2ccc(-c3c[nH]c([N+](=O)[O-])c3)o2)c(-c2ccccn2)n1` [Compound I-24, 5-(5-nitro-1H-pyrrol-3-yl)-N-(1-(propoxymethyl)-3-(pyridin-2-yl)-1H-pyrazol-4-yl)furan-2-carboxamide], the EC50 is 4.22 µM.

For `COCCOCCn1cc(-c2ccc(C(=O)Nc3cn(CCOCCOC)nc3-c3ccccn3)o2)cn1` [Compound I-52, 5-(1-(2-(2-methoxyethoxy)ethyl)-1H-pyrazol-4-yl)-N-(1-(2-(2-methoxyethoxy)ethyl)-3-(pyridin-2-yl)-1H-pyrazol-4-yl)furan-2-carboxamide formate], the EC50 amounted to 1.38 µM.

In the case of `O=C(Nc1cn(C2CCC2)nc1-c1ccccn1)c1ccc(-c2cnn(C3CCC3)c2)o1` [Compound I-122, 5-(1-cyclobutyl-1H-pyrazol-4-yl)-N-(1-cyclobutyl-3-(pyridin-2-yl)-1H-pyrazol-4-yl)furan-2-carboxamide 2,2,2-trifluoroacetate], the EC50 turned out to be 3.76 µM.

Take `COc1ccc(Cn2cc(-c3nc(C(=O)Nc4cn(CCF)nc4-c4ccccn4)cs3)cn2)cc1` [II-52, N-(1-(2-fluoroethyl)-3-(pyridin-2-yl)-1H-pyrazol-4-yl)-2-(1-(4-methoxybenzyl)-1H-pyrazol-4-yl)thiazole-4-carboxamide]: the EC50 stood at 6.16 µM.

For the compound `COc1ccc(Cn2cc(-c3nc(C(=O)Nc4c[nH]nc4-c4ccccn4)cs3)cn2)cc1` [II-53, 2-(1-(4-methoxybenzyl)-1H-pyrazol-4-yl)-N-(3-(pyridin-2-yl)-1H-pyrazol-4-yl)thiazole-4-carboxamide], the 50% effective concentration (EC50) came out at 24.1 µM.

Take `CCO[C@H]1C[C@@H](n2cc(NC(=O)c3csc(-c4cn[nH]c4)n3)c(C(F)(F)F)n2)C1` [II-62, N-(1-((1s,3s)-3-ethoxycyclobutyl)-3-(trifluoromethyl)-1H-pyrazol-4-yl)-2-(1H-pyrazol-4-yl)thiazole-4-carboxamide]: the EC50 is 6.48 µM.

Consider `CCO[C@H]1C[C@@H](n2cc3c(n2)CCCN3C(=O)c2csc(-c3cn[nH]c3)n2)C1` [II-67, (2-(1H-pyrazol-4-yl)thiazol-4-yl)(2-((1s,3s)-3-ethoxycyclobutyl)-2,5,6,7-tetrahydro-4H-pyrazolo[4,3-b]pyridin-4-yl)methanone], for which the EC50 came out at 26.2 µM.

Regarding `CC1(O)CC(n2cc(NC(=O)c3csc(-c4cn[nH]c4)n3)c(-c3ccccn3)n2)C1` (stereo not shown) [II-87, N-(1-(3-hydroxy-3-methylcyclobutyl)-3-(pyridin-2-yl)-1H-pyrazol-4-yl)-2-(1H-pyrazol-4-yl)thiazole-4-carboxamide], the EC50 was 0.615 µM.

As for `CCO[C@H]1C[C@@H](n2cc(NC(=O)c3csc(-c4c(C)n[nH]c4C)n3)c(-c3ccccn3)n2)C1` [II-93, 2-(3,5-dimethyl-1H-pyrazol-4-yl)-N-(1-((1,3-cis)-3-ethoxycyclobutyl)-3-(pyridin-2-yl)-1H-pyrazol-4-yl)thiazole-4-carboxamide], the EC50 is 0.109 µM.

Take `O=C(Nc1cn(C(F)F)nc1-c1ccccn1)c1csc(-c2cnn(C(F)F)c2)n1` [II-98, 2-(1-(difluoromethyl)-1H-pyrazol-4-yl)-N-(1-(difluoromethyl)-3-(pyridin-2-yl)-1H-pyrazol-4-yl)thiazole-4-carboxamide]: the EC50 turned out to be 24.6 µM.

On to `COc1ccc(Cn2cc(-c3nc(C(=O)Nc4cn(CC(O)C(F)(F)F)nc4-c4ccccn4)cs3)cn2)cc1` (stereo not shown) [II-103, 2-(1-(4-methoxybenzyl)-1H-pyrazol-4-yl)-N-(3-(pyridin-2-yl)-1-(3,3,3-trifluoro-2-hydroxypropyl)-1H-pyrazol-4-yl)thiazole-4-carboxamide], for which the EC50 amounted to 8.08 µM.

With `COc1ccc(Cn2cc(-c3nc(C(=O)Nc4cn(C(=O)N(C)C)nc4-c4ccccn4)cs3)cn2)cc1` [II-105, N-(1-(dimethylcarbamoyl)-3-(pyridin-2-yl)-1H-pyrazol-4-yl)-2-(1-(4-methoxybenzyl)-1H-pyrazol-4-yl)thiazole-4-carboxamide], the EC50 is 5.55 µM.

With `O=C(Nc1cn(C(=O)N2CCOCC2)nc1-c1ccccn1)c1csc(-c2cn[nH]c2)n1` [II-129, N-(1-(morpholine-4-carbonyl)-3-(pyridin-2-yl)-1H-pyrazol-4-yl)-2-(1H-pyrazol-4-yl)thiazole-4-carboxamide], the EC50 came to 0.377 µM.

With `Cn1cc(NC(=O)c2csc(-c3cn[nH]c3)n2)c(C#N)n1` [II-137, N-(3-cyano-1-methyl-1H-pyrazol-4-yl)-2-(1H-pyrazol-4-yl)thiazole-4-carboxamide], the EC50 is 0.206 µM.

In the case of `Cn1cc(NC(=O)c2coc(-c3cnn(CC4CC4)c3)n2)c(-c2ccccn2)n1` [III-1, 2-(1-(cyclopropylmethyl)-1H-pyrazol-4-yl)-N-(1-methyl-3-(pyridin-2-yl)-1H-pyrazol-4-yl)oxazole-4-carboxamide], the EC50 was found to be 20.3 µM.

The assay is the same for the next values; noted with them: Homo sapiens, THP-1, 18 h, read-out: IL23-p19 ELISA, THP1-IFNy, LPS, 10 pt EC50 (μM).
`CCOP(=O)(Cn1cc(-c2nc(C(=O)Nc3cn(C)nc3-c3ccccn3)cs2)cn1)OCC` [II-7, diethyl ((4-(4-((1-methyl-3-(pyridin-2-yl)-1H-pyrazol-4-yl)carbamoyl)thiazol-2-yl)-1H-pyrazol-1-yl)methyl)phosphonate]: the concentration giving a half-maximal response (EC50) worked out at 6.09 µM.
